Assay results published in ChEMBL document CHEMBL1143200, “Design and physicochemical properties of new fluorescent ligands of protein kinase C isozymes focused on CH/pi interaction” (Bioorg Med Chem, 2008).

Key:
[1] = target: Protein kinase C delta type (Homo sapiens, UniProt Q05655); test: Displacement of [3H]PDBu from PKCdelta C1B domain
[2] = target: T1, Protein kinase C gamma type (Homo sapiens, UniProt P05129); test: Displacement of [3H]PDBu from PKCgamma C1B domain
[3] = target: T2, Protein kinase C beta type (Homo sapiens, UniProt P05771); test: Displacement of [3H]PDBu from PKCbeta C1A domain
[4] = target: T3, Protein kinase C alpha type (Homo sapiens, UniProt P17252); test: Displacement of [3H]PDBu from PKCalpha C1A domain
[5] = target: T1, Protein kinase C gamma type; test: Displacement of [3H]PDBu from PKCgamma C1A domain
[6] = target: Protein kinase C eta type (Homo sapiens, UniProt P24723); test: Displacement of [3H]PDBu from PKCeta C1B domain
[7] = target: T3, Protein kinase C alpha type; test: Displacement of [3H]PDBu from PKCalpha C1B domain
[8] = target: Protein kinase C theta type (Homo sapiens, UniProt Q04759); test: Displacement of [3H]PDBu from PKCtheta C1B domain
[9] = target: T2, Protein kinase C beta type; test: Displacement of [3H]PDBu from PKCbeta C1B domain
[10] = target: T4, Protein kinase C epsilon type (Homo sapiens, UniProt Q02156); test: Displacement of [3H]PDBu from PKCepsilon C1B domain
T4 sequence (Q02156 whole entry): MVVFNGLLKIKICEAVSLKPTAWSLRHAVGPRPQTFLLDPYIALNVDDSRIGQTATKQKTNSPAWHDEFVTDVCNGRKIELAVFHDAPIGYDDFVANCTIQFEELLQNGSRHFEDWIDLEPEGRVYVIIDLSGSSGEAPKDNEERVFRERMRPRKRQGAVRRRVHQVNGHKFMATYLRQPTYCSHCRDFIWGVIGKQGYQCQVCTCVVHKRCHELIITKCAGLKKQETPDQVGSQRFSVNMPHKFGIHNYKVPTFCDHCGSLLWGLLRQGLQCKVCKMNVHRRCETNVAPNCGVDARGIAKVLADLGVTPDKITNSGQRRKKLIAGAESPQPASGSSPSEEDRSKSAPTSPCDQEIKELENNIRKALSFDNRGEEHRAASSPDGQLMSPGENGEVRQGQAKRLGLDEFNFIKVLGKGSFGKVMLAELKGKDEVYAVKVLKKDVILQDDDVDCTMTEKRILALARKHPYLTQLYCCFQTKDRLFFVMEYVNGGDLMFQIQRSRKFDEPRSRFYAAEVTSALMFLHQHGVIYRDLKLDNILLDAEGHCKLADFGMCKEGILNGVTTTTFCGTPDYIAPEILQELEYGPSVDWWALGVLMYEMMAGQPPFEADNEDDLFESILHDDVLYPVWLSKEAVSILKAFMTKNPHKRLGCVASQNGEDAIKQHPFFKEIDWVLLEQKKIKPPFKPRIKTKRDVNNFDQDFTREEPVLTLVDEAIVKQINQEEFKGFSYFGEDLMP

Chain of Protein kinase C theta type (Q04759 whole entry, the tested form may be a part): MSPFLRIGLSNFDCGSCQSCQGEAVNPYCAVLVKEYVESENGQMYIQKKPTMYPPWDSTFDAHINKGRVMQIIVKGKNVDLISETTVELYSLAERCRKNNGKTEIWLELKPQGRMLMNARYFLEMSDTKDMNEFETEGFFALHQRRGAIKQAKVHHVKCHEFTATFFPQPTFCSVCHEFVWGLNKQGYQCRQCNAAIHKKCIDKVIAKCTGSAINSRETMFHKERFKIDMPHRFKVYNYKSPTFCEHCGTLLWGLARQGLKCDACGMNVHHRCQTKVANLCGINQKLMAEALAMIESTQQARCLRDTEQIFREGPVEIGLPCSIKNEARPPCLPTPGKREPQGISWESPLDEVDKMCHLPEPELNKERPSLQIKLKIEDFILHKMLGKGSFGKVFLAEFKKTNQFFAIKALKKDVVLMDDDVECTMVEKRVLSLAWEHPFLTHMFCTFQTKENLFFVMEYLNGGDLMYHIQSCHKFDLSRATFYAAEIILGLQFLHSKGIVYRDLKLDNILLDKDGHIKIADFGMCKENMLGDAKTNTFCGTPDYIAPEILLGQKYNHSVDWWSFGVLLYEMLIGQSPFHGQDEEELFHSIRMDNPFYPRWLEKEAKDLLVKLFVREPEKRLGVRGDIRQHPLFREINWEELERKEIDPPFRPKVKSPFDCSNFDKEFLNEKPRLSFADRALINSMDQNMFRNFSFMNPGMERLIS
Chain of Protein kinase C delta type (Q05655 whole entry, the tested form may be a part): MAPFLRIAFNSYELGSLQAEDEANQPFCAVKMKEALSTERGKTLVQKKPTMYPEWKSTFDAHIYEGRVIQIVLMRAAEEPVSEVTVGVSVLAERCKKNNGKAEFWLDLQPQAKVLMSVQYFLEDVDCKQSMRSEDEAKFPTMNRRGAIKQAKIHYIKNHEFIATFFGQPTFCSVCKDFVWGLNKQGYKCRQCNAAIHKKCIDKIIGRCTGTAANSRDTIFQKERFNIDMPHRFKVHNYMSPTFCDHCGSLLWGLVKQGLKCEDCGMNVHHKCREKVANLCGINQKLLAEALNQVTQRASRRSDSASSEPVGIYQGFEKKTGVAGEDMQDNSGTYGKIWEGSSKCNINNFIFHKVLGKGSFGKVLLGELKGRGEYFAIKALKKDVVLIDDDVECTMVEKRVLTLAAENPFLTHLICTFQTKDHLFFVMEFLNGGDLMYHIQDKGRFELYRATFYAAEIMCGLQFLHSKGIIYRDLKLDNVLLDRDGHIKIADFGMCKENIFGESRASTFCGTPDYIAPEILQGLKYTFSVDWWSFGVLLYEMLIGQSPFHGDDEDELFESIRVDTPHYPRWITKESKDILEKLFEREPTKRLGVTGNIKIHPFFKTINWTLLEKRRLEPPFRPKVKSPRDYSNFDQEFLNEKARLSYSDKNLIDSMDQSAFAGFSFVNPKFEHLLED
Chain of Protein kinase C eta type (P24723 whole entry, the tested form may be a part): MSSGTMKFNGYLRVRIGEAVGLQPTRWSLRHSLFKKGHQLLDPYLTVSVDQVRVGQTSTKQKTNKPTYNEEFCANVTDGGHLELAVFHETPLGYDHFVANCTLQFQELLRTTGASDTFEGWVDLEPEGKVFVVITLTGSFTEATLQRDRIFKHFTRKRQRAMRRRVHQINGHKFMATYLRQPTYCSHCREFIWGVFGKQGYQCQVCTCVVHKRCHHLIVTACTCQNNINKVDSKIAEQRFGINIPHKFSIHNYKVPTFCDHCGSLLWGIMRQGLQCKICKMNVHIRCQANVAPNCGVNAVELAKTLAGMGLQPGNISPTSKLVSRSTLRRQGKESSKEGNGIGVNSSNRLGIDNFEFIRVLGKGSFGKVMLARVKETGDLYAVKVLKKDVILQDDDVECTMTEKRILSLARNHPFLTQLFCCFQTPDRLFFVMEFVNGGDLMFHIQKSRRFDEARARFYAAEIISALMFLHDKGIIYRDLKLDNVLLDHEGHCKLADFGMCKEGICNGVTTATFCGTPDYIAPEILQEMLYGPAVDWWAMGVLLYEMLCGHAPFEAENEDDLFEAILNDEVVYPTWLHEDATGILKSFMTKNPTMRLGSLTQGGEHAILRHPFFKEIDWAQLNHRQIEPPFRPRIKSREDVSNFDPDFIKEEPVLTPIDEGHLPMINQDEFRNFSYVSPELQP
T2 sequence (P05771 whole entry, the tested form may be a part): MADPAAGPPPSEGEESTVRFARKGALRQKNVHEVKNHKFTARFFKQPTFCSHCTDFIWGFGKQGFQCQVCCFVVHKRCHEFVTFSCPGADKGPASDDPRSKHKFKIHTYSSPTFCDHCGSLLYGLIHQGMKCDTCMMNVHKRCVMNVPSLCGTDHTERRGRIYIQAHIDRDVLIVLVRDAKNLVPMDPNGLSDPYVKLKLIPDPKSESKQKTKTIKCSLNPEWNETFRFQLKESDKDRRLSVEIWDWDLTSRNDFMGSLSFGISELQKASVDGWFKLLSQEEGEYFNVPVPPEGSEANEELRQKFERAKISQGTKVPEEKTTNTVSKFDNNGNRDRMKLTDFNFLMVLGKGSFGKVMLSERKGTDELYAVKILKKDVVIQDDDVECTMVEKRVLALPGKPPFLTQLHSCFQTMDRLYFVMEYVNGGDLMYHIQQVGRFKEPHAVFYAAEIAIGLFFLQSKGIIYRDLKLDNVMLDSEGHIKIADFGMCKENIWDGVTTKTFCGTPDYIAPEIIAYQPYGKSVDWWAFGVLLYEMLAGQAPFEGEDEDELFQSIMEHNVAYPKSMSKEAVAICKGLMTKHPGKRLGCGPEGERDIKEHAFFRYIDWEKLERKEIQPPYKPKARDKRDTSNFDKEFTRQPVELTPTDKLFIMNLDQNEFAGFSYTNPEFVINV

SMILES | Ki [1] | Ki [2] | Ki [3] | Ki [4] | Ki [5] | Ki [6] | Ki [7] | Ki [8] | Ki [9] | Ki [10]
CC(C)[C@H]1C(=O)N[C@H](CO)Cc2cn3nc(C(F)(F)F)c4ccc(c2c43)N1C | 52.1 nM | 1100 nM | 127 nM | 112 nM | 234 nM | 29.7 nM | 721 nM | 51.1 nM | 9380 nM | 80.1 nM
CC(C)[C@H]1C(=O)N[C@H](CO)Cc2cn3ncc4ccc(c2c43)N1C | 17.7 nM | 225 nM | 88 nM | 85.5 nM | 61.3 nM | 9.9 nM | 357 nM | 18.6 nM | 5960 nM | 22.5 nM
Cc1nn2cc3c4c(ccc1c42)N(C)[C@@H](C(C)C)C(=O)N[C@H](CO)C3 | 128 nM | 2580 nM | 1100 nM | 1090 nM | 1510 nM | 223 nM | 2620 nM | 149 nM | > 10000 nM | 407 nM
CC(C)[C@H]1C(=O)N[C@H](CO)Cc2c[nH]c3cccc(c23)N1C [INDOLACTUM] |  |  |  |  |  |  | 140 nM |  | 4000 nM | 
